In patent US8377974B2 (Millennium Pharmaceuticals, Inc., priority 2004, dated 2013):
Each block holds one compound with its values, some of them ahead of it.

Molecular target: T1, human plasma protein factor Xa (Homo sapiens, UniProt P00742)
T1 construct: measure proteolytic activity of the enzyme (factor Xa); purchased Haematologic Technologies (Essex Junction, Vt.); host or cells: human plasma
Assay: Factor Xa IC50 determination: cleavage of paranitroanilide substrate S-2765 in 96-well plates
Format: biochemical
Conditions: fXa 1 nM, S-2765 100 μM, Tris buffered saline pH 7.4, room temperature
Method in brief: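 Initial rates of S-2765 (100 μM final) cleavage, read at 405 nm for 2 min, fitted with a four-parameter equation to give IC50. Enzyme: 1 nM human plasma fXa, 5 min room-temperature preincubation with inhibitor (0.01 nM–10 μM) in 20 mM Tris, 150 mM NaCl, 5 mM CaCl2, 0.1% BSA, 5% DMSO, pH 7.4; duplicates.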

T1 sequence (P00742 235-488 limits assumed): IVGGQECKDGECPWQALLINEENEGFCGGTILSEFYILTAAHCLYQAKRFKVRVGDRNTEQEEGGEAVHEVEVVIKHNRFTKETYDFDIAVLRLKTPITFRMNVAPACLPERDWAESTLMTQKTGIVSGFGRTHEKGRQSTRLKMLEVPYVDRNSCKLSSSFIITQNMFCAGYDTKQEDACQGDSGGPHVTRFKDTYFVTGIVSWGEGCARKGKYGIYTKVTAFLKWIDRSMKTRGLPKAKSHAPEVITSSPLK
T1 sequence (P00742 41-179 partner limits assumed): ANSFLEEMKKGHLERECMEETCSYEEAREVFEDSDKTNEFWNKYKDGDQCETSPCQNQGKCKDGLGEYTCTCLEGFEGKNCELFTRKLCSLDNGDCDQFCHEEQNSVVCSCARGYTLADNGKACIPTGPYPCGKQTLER

Compound: O=C(NCC1CC(c2ccc(N3CCCC3=O)cc2)=NO1)c1ccc(Cl)s1 (stereo not shown) [Example 240, 5-Chloro-thiophene-2-carboxylic acid {3-[4-(2-oxo-pyrrolidin-1-yl)-phenyl]-4,5-dihydro-isoxazol-5-ylmethyl}-amide]
- IC50: ≤ 0.1 µM

Compound: COCCN(C)C(=N)c1ccc(-n2cc(CNC(=O)c3ccc(Cl)s3)nn2)cc1 [Example 316, N-((1-(4-(N-(2-Methoxyethyl)-N-methylcarbamimidoyl)phenyl)-1H-1,2,3-triazol-4-yl)methyl)-5-chlorothiophene-2-carboxamide]
- IC50: ≤ 0.1 µM

Compound: CSc1cc(C(=N)N(C)C)ccc1C1=NOC(CNC(=O)c2ccc(Cl)s2)C1 (stereo not shown) [Example 136, 5-Chloro-thiophene-2-carboxylic acid {3-[4-(N,N-dimethyl-carbamimidoyl)-2-methylsulfanyl-phenyl]-4,5-dihydro-isoxazol-5-ylmethyl}-amide]
- IC50: ≤ 0.1 µM

Compound: COc1ccc(-c2cc(CNC(=O)c3ccc(Cl)s3)on2)cc1 [Example 152, 5-Chloro-thiophene-2-carboxylic acid [3-(4-methoxy-phenyl)-isoxazol-5-ylmethyl]-amide]
- IC50: ≥ 0.5 µM

Compound: CN(C)C(=N)c1ccc(C2=NOC(C)(CNC(=O)c3ccc(Cl)s3)C2)cc1 (stereo not shown) [Example 57, 5-Chloro-thiophene-2-carboxylic acid {3-[4-(N,N-dimethyl-carbamimidoyl)-phenyl]-5-methyl-4,5-dihydro-isoxazol-5-ylmethyl}-amide]
- IC50: ≤ 0.1 µM

Compound: O=Cc1ccccc1-c1ccc(C2=NOC(CNC(=O)c3ccc(Cl)s3)C2)cc1 (stereo not shown) [Example 183, 5-Chloro-thiophene-2-carboxylic acid [3-(2′-formyl-biphenyl-4-yl)-4,5-dihydro-isoxazol-5-ylmethyl]-amide]
- IC50: ≥ 0.5 µM

Compound: COc1ccc(CN(C)C)c(-c2ccc(-c3cc(CNC(=O)c4ccc(Cl)s4)on3)cc2)c1 [Example 215, 5-Chloro-thiophene-2-carboxylic acid [3-(2′-dimethylaminomethyl-5′-methoxy-biphenyl-4-yl)-isoxazol-5-ylmethyl]-amide]
- IC50: ≥ 0.5 µM

Compound: O=C(NCC1CC(c2ccc(Nc3ccnc4cc(C(F)(F)F)ccc34)cc2)=NO1)c1ccc(Cl)s1 (stereo not shown) [Example 394, 5-Chloro-N-((3-(4-(7-(trifluoromethyl)quinolin-4-ylamino)phenyl)-4,5-dihydroisoxazol-5-yl)methyl)thiophene-2-carboxamide]
- IC50: ≤ 0.1 µM

Compound: O=C(NCC1CC(c2cccc(-c3ccncc3)c2)=NO1)c1ccc(Cl)s1 (stereo not shown) [Example 275, 5-Chloro-thiophene-2-carboxylic acid [3-(3-pyridin-4-yl-phenyl)-4,5-dihydro-isoxazol-5-ylmethyl]-amide]
- IC50: ≥ 0.5 µM

Compound: O=C(NCC1CC(c2ccccc2)=NO1)c1ccc(Cl)s1 (stereo not shown) [Example 144, 5-Chloro-thiophene-2-carboxylic acid (3-phenyl-4,5-dihydro-isoxazol-5-ylmethyl)-amide]
- IC50: ≥ 0.5 µM

Compound: O=C(NCc1cc(C2CCNCC2)no1)c1ccc(Cl)s1 [Example 176, 5-Chloro-thiophene-2-carboxylic acid (3-piperidin-4-yl-isoxazol-5-ylmethyl)-amide]
- IC50: ≥ 0.5 µM

Compound: CN1CCN=C1c1ccc(-c2cc(CNC(=O)c3ccc(Cl)s3)on2)c(Oc2ccccc2)c1 [Example 131, 5-Chloro-thiophene-2-carboxylic acid {3-[4-(1-methyl-4,5-dihydro-1H-imidazol-2-yl)-2-phenoxy-phenyl]-isoxazol-5-ylmethyl}-amide]
- IC50: ≤ 0.1 µM

Compound: CN1CCN=C1c1ccc(-c2noc(CNC(=O)c3ccc(Cl)s3)n2)cc1 [Example 335, 5-Chloro-N-((3-(4-(1-methyl-4,5-dihydro-1H-imidazol-2-yl)phenyl)-1,2,4-oxadiazol-5-yl)methyl)thiophene-2-carboxamide]
- IC50: ≤ 0.1 µM

Compound: Cc1ccc(-c2cc(CNC(=O)c3ccc(Cl)s3)on2)cc1 [Example 149, 5-Chloro-thiophene-2-carboxylic acid (3-p-tolyl-isoxazol-5-ylmethyl)-amide]
- IC50: ≥ 0.5 µM

Compound: CN(C)C(=N)c1ccc(C2=NOC(CNC(=O)c3ccc(Cl)s3)C2)c(N2CCCC2)c1 (stereo not shown) [Example 78, 5-Chloro-thiophene-2-carboxylic acid {3-[4-(N,N-dimethyl-carbamimidoyl)-2-pyrrolidin-1-yl-phenyl]-4,5-dihydro-isoxazol-5-ylmethyl}-amide]
- IC50: 0.1 to 0.5 µM

Compound: C#CCN(C)C(=N)c1ccc(C2=NOC(CNC(=O)c3ccc(Cl)s3)C2)cc1 (stereo not shown) [Example 13, 5-Chloro-thiophene-2-carboxylic acid {3-[4-(N-methyl-N-prop-2-ynyl-carbamimidoyl)-phenyl]-4,5-dihydro-isoxazol-5-ylmethyl}-amide]
- IC50: 0.1 to 0.5 µM

Compound: COc1ccc(=O)n(-c2ccc(C3=NOC(CNC(=O)c4ccc(Cl)s4)C3)cc2)c1 (stereo not shown) [Example 286, 5-Chloro-N-((3-(4-(5-methoxy-2-oxopyridin-1(2H)-yl)phenyl)-4,5-dihydroisoxazol-5-yl)methyl)thiophene-2-carboxamide]
- IC50: ≤ 0.1 µM

Compound: CC(C)N1CCC(C2=NOC(CNC(=O)c3ccc(Cl)s3)C2)CC1 (stereo not shown) [Example 171, 5-Chloro-thiophene-2-carboxylic acid [3-(1-isopropyl-piperidin-4-yl)-4,5-dihydro-isoxazol-5-ylmethyl]-amide]
- IC50: ≥ 0.5 µM

Compound: COc1ccc(-c2ccc(C3=NOC(CNC(=O)c4ccc(Cl)s4)C3)cc2)c(CO)c1 (stereo not shown) [Example 207, 5-Chloro-thiophene-2-carboxylic acid [3-(2′-hydroxymethyl-4′-methoxy-biphenyl-4-yl)-4,5-dihydro-isoxazol-5-ylmethyl]-amide]
- IC50: ≥ 0.5 µM

Compound: O=C(NCc1cn(-c2ccc(N3CCCOCC3)nc2)nn1)c1ccc(Cl)s1 [Example 385, N-((1-(6-(1,4-Oxazepan-4-yl)pyridin-3-yl)-1H-1,2,3-triazol-4-yl)methyl)-5-chlorothiophene-2-carboxamide]
- IC50: 0.1 to 0.5 µM

More lines, now with the values ahead:

- IC50: ≤ 0.1 µM
Compound: COc1ccc(CN2CCCC2)c(-c2ccc(-c3cc(CNC(=O)c4ccc(Cl)s4)on3)cc2)c1 [Example 216, 5-Chloro-thiophene-2-carboxylic acid [3-(5′-methoxy-2′-pyrrolidin-1-ylmethyl-biphenyl-4-yl)-isoxazol-5-ylmethyl]-amide]

- IC50: 0.1 to 0.5 µM
Compound: CN(C)c1cc(C(=N)N2CCCC2)ccc1C1=NOC(CNC(=O)c2ccc(Cl)s2)C1 (stereo not shown) [Example 76, 5-Chloro-thiophene-2-carboxylic acid {3-[2-dimethylamino-4-(imino-pyrrolidin-1-yl-methyl)-phenyl]-4,5-dihydro-isoxazol-5-ylmethyl}-amide]

- IC50: ≤ 0.1 µM
Compound: N=C(c1ccc(-n2cnc(CNC(=O)c3ccc(Cl)s3)c2)cc1)N1CCCCC1 [Example 368, 5-Chloro-N-((1-(4-(imino(piperidin-1-yl)methyl)phenyl)-1H-imidazol-4-yl)methyl)thiophene-2-carboxamide]

- IC50: ≤ 0.1 µM
Compound: CN1CCN=C1c1ccc(-c2cc(CNC(=O)c3ccc(Cl)s3)no2)cc1 [Example 331, 5-Chloro-N-((5-(4-(1-methyl-4,5-dihydro-1H-imidazol-2-yl)phenyl)isoxazol-3-yl)methyl)thiophene-2-carboxamide]

- IC50: ≤ 0.1 µM
Compound: N=C(c1ccc(-c2cccc(CNC(=O)c3ccc(Cl)s3)c2)cc1)N1CCCC1 [Example 382, 5-Chloro-N-((3-(4-(imino(pyrrolidin-1-yl)methyl)phenyl)phenyl)methyl)thiophene-2-carboxamide]

- IC50: ≤ 0.1 µM
Compound: N=C(c1ccc(-c2cc(CNC(=O)c3ccc(Cl)s3)on2)cc1)N1CCC1 [Example 26, 5-Chloro-thiophene-2-carboxylic acid {3-[4-(azetidin-1-yl-imino-methyl)-phenyl]-isoxazol-5-ylmethyl}-amide]

- IC50: ≥ 0.5 µM
Compound: CNC(=N)c1ccc(-c2nc(CNC(=O)c3ccc(Cl)s3)co2)cc1 [Example 348, N-((2-(4-(N-Methylcarbamimidoyl)phenyl)oxazol-4-yl)methyl)-5-chlorothiophene-2-carboxamide]

- IC50: ≤ 0.1 µM
Compound: CN(C)C(=N)c1ccc(-n2cc(CNC(=O)c3ccc(Cl)s3)cn2)cc1 [Example 325, N-((1-(4-(N,N-Dimethylcarbamimidoyl)phenyl)-1H-pyrazol-4-yl)methyl)-5-chlorothiophene-2-carboxamide]

- IC50: ≤ 0.1 µM
Compound: N=C(c1ccc(C2=NOC(CNC(=O)c3ccc(Cl)s3)C2)cc1)N1CCCC1 (stereo not shown) [Example 10, 5-Chloro-thiophene-2-carboxylic acid {3-[4-(imino-pyrrolidin-1-yl-methyl)-phenyl]-4,5-dihydro-isoxazol-5-ylmethyl}-amide]

- IC50: 0.1 to 0.5 µM
Compound: CN1CCN=C1c1ccc(-c2cc(CNC(=O)c3ccc(Cl)s3)ccc2F)cc1 [Example 378, 5-Chloro-N-((3-(4-(1-methyl-4,5-dihydro-1H-imidazol-2-yl)phenyl)-4-fluorophenyl)methyl)thiophene-2-carboxamide]

- IC50: 0.1 to 0.5 µM
Compound: O=C(NCC1CC(c2ccc(-c3cccnc3)cc2)=NO1)c1ccc(Cl)s1 (stereo not shown) [Example 190, 5-Chloro-thiophene-2-carboxylic acid [3-(4-pyridin-3-yl-phenyl)-4,5-dihydro-isoxazol-5-ylmethyl]-amide]

- IC50: ≤ 0.1 µM
Compound: CN1CCN=C1c1ccc(-c2cncc(CNC(=O)c3ccc(Cl)s3)c2)cc1 [Example 370, 5-Chloro-N-((5-(4-(1-methyl-4,5-dihydro-1H-imidazol-2-yl)phenyl)pyridin-3-yl)methyl)thiophene-2-carboxamide]

- IC50: ≥ 0.5 µM
Compound: O=C(NCc1cc(C2CCN(Cc3ccccc3)CC2)no1)c1ccc(Cl)s1 [Example 178, 5-Chloro-thiophene-2-carboxylic acid [3-(1-benzyl-piperidin-4-yl)-isoxazol-5-ylmethyl]-amide]

- IC50: 0.1 to 0.5 µM
Compound: COCCN(C)c1cc(C(=N)N2CCCC2)ccc1C1=NOC(CNC(=O)c2ccc(Cl)s2)C1 (stereo not shown) [Example 88, 5-Chloro-thiophene-2-carboxylic acid (3-{4-(imino-pyrrolidin-1-yl-methyl)-2-[(2-methoxy-ethyl)-methyl-amino]-phenyl}-4,5-dihydro-isoxazol-5-ylmethyl)-amide]
